Tests used:
[1] = system: SL biosynthesis genes (D27, CCD7, CCD8 and CO); test: qRT-PCR of transcript levels of SL biosynthesis genes (all four together) in rice roots; type: in vivo; conditions: Shiokari wild-type and d3 seedlings, phosphate-starved, 5 μM, 6 h
Method: For the analysis of SL transcript levels in the zas mutant, one week-old seedlings were grown hydroponically in half-strength modified Hoagland nutrient solution with K2HPO4·2H2O (+Pi) and without K2HPO4·2H2O (−Pi) for 7 days. Seedlings were further treated with zaxinone for 6 h and tissues were collected.
(§1) Total RNA was extracted from the roots and shoots using a Qiagen Plant RNeasy Kit according to the manufacturer's instruction. cDNA was synthesized from 1 μg of total RNA using iScript cDNA Synthesis Kit (BIO-RAD Laboratories, Inc, 2000 Alfred Nobel Drive, Hercules, CA, Cat. No #170-8890) according to instructions in the user manual. For mycorrhizal samples, single-strand cDNA was synthesized from 1 μg of total RNA using Super-Script II (Invitrogen) according to instructions in the user manual. Primers used for real-time quantitative RT-PCR (qRT-PCR) analysis are listed below in Table 3. qRT-PCR was performed using SYBR Green Master Mix (Applied Biosystems; www.lifetechnologies.com) in a StepOnePlus (Life Technologies, Carlsbad, CA, USA). For mycorrhizal samples, qRT-PCR was performed using a Rotor-Gene Q 5plex HRM Platform (Qiagen). The 2-ΔCt method was used to calculate the relative gene expression levels and rice Ubiquitin (OsUBQ or OsRubQ1) gene was used as the internal control to normalize target gene expression.
Two week-old seedlings were grown for another one week in −Pi solution and then transferred to new vials containing fresh −Pi solution with and without the indicated concentrations (2.5 μM, 5 μM, 10 μM and 20 μM) of zaxinone for 6 h and samples were collected. SL biosynthetic genes expression for D27 (FIG. 19A), CCD7 […], CCD8 (FIG. 19C), and CO (Carlactone oxidase-FIG. 19D) in WT and zas mutants. […] The expression levels were detected by quantitative RT-PCR. Ubiquitin was used as a reference gene and the expression levels in the WT-mock were normalized to 1. Bars represent mean±SD (n=3). Different letters above each bar denote significant difference following a One-way ANOVA test (P<0.05).
Transcript levels of SL biosynthesis genes, D27 (FIG. 24C), CCD7/D17 (FIG. 24D), CCD8/D10 (FIG. 24E) and OsCO (Carlactone oxidase—FIG. 24F) in root tissues were collected for SL quantification. The expression levels were detected by qRT-PCR. Ubiquitin was used as a reference gene and the expression levels in the WT-mock were normalized to 1. Two week-old seedlings were grown for another one week in −Pi solution and then transferred to new vials containing fresh −Pi solution with and without 5 μM of zaxinone and GR24 for 6 h and samples were collected. Bars represent mean±SD (n=3). Different letters above each bar denote significant difference following a One-way ANOVA test (P<0.05).

Zaxinone Synthase (ZAS) = test: qRT-PCR of ZAS transcript levels in rice after zaxinone or GR24; type: in vivo, rice (Nipponbare); conditions: WT rice, phosphate starvation, 5 μM, 6 h
Method: as §1
FIGS. 14A-14C show transcript levels of Zaxinone Synthase (ZAS) in wild type roots and shoots. In FIG. 14A, the relative expression levels of ZAS under normal (+Pi) and phosphate-starved (−Pi) conditions in Nipponbare wild-type (WT) roots and shoots is seen. The expression levels in the WT root were normalized to 1. In FIG. 14B, the relative expression levels of ZAS under −Pi conditions with 5 μM of Zaxinone and GR24 treatment in WT rice root and shoot is seen. Three weeks-old seedlings were transferred to new hydroponic pots containing fresh media with or without chemicals for 6 h. The expression levels in the WT-mock were normalized to 1 and the expression levels were detected by qRT-PCR. Ubiquitin was used as a reference gene. Bars represent mean±SD (n=3). Mock treatment (0.1% acetone). Different letters above each bar denote significant difference following a One-way ANOVA test (P<0.05).

CC1=C[C@H](O/C=C2/C(=O)O[C@@H]3c4ccccc4C[C@H]23)OC1=O [GR24, reference compound]
SL transcript levels in roots [1]: affected the transcript levels only in wild-type seedlings | ZAS transcript levels in root tissues (Zaxinone Synthase (ZAS)): negatively impacted

Reference: patent US11839210B1, “Plant growth promoter with strigolactones regulation activities” (King Abdullah University of Science and Technology, priority 2017, dated 2023)
